Measured values taken from PubChem BioAssay AID1033 (Sanford-Burnham Center for Chemical Genomics, 2008).
Calls of active or inactive are those of the source. How the calls were made is not given here.

What follows are compounds tested against Chaperone protein DnaK (Escherichia coli (strain K12)) (UniProt P0A6Y8) (assay: E. coli DnaK SBD ligand binding – biophysical, NMR, chaperone (AID 1033)). Settings: Purified DnaK SBD.
Sequence of Chaperone protein DnaK (Escherichia coli (strain K12)) (P0A6Y8 whole entry, looked up): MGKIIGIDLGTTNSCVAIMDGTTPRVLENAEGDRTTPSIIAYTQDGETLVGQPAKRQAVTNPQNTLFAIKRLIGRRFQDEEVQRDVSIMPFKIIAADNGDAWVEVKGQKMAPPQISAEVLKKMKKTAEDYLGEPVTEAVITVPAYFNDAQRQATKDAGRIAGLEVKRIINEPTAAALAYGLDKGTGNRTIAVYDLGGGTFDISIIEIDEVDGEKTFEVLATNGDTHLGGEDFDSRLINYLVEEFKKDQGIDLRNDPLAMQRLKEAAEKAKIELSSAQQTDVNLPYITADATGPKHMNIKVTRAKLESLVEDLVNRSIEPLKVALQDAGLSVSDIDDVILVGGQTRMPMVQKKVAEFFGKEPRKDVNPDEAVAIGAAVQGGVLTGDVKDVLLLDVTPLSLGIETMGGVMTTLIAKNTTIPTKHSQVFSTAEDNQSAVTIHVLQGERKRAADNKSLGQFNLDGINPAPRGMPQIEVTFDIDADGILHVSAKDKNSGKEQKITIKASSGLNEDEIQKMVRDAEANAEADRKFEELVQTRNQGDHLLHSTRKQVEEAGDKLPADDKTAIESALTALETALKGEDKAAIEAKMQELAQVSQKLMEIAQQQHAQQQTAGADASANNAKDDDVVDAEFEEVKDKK

SMILES	Kd
CNC(=O)C1=NCCCc2cc(OC)c(OC)cc21	> 4 mM (inactive)
Oc1ccc(/C=C/c2cc(O)cc(O)c2)cc1	> 4 mM (inactive)
O=C(O)CC1C(=O)NCCN1Cc1cccs1 (stereo unspecified)	> 4 mM (inactive)
Cc1ccc(C)n1-c1ccc(C(=O)N2CCOCC2)cc1	> 4 mM (inactive)
O=C(Nc1ccccc1Cl)c1cnccn1	> 4 mM (inactive)
Cc1ccc2c(c1)=C(c1sc(N)nc1O)C(=O)N=2	> 4 mM (inactive)
C[C@@H]1C(=O)O[C@H]2[C@H]1CC[C@@]1(C)C=CC(=O)[C@@]3(C)O[C@@]213	> 4 mM (inactive)
Cn1ncc2c(=O)n(CC(=O)c3ccccc3)cnc21	> 4 mM (inactive)
c1ccc2nc3c(nc2c1)CCc1nonc1-3	> 4 mM (inactive)
O=c1[nH]c(NCCO)nnc1Cc1ccccc1	> 4 mM (inactive)
NC(=O)Cn1nc(-c2ccc(F)cc2)ccc1=O	> 4 mM (inactive)
C=C(C)[C@H]1Cc2c(ccc3c2O[C@@H]2COc4cc(OC)c(OC)cc4[C@@H]2C3=O)O1	> 4 mM (inactive)
O=C(O)C1=CCCNC1	> 4 mM (inactive)
CN(c1ccccc1C(=O)N1CCCC1)S(C)(=O)=O	> 4 mM (inactive)
COc1ccc(C(C)=O)c(O)c1	> 4 mM (inactive)
CC(=O)Oc1cc2c(c(C)c1OC(C)=O)CC=C1[C@@]2(C)CC[C@@]2(C)C3C[C@](C)(C(=O)O)CC[C@]3(C)CC[C@]12C (stereo partly specified)	> 4 mM (inactive)
O=[n+]1c2c(n([O-])c3ccccc31)CCCC2	> 4 mM (inactive)
O=c1[nH]c2c(c(=O)n1C1CCCCC1)CCC2	> 4 mM (inactive)
O=C1CN(C(=O)CN2CCOCC2)c2ccccc2N1	> 4 mM (inactive)
COc1ccc(C(O)c2nccn2C)cc1 (stereo unspecified)	> 4 mM (inactive)
O=S1(=O)C=CC(N2CCCCC2)C1 (stereo unspecified)	> 4 mM (inactive)
O=C(O)Cn1c(=O)sc2ccccc21	> 4 mM (inactive)
CC(=O)CC1(O)C(=O)Nc2ccccc21 (stereo unspecified)	> 4 mM (inactive)

SMILES	Kd
CC(=O)Oc1c(C)cc(O)c2ccccc12	> 4 mM (inactive)
Cn1c(=O)c2[nH]cnc2n(-c2ccccc2)c1=O	> 4 mM (inactive)
CC(=O)OCC(=O)[C@@]1(O)CCC2C3CC[C@@H]4C[C@H](O)CC[C@]4(C)C3C(=O)C[C@@]21C (stereo partly specified)	> 4 mM (inactive)
CNC(=O)c1ccc([N+](=O)[O-])cc1Cl	> 4 mM (inactive)
CC1(C)NC(=O)N(CN2CCOCC2)C1=O	> 4 mM (inactive)
Nc1nc(-c2ccccc2)cc(=O)[nH]1	> 4 mM (inactive)
CC(=O)Nc1cccc(N2C(=O)CCC2=O)c1	> 4 mM (inactive)
Cc1n[nH]c(=O)nc1N1CCN(c2ccccc2)CC1	> 4 mM (inactive)
CN(C)C(=O)c1ccc(-c2n[nH]c(=O)c3ccccc23)cc1	> 4 mM (inactive)
CN1CCN(c2cc(=O)n(C)c(=O)[nH]2)CC1	> 4 mM (inactive)
NC(N)=NCCCCN=C(N)N	> 4 mM (inactive)
OCc1ccc(Oc2ccccc2)nc1	> 4 mM (inactive)
CC(C)=CCC1=C(O)c2ccccc2C(=O)C1=O	> 4 mM (inactive)
CCOc1cc(C)c(Cl)cc1S(=O)(=O)N(C)C	> 4 mM (inactive)
Nc1nnc(SCc2cccnc2)s1	> 4 mM (inactive)
CC(C)(O)CC[C@@H](O)[C@](C)(O)C1CC[C@@]2(O)C3=CC(=O)C4C[C@@H](O)[C@@H](O)C[C@]4(C)C3CC[C@]12C (stereo partly specified)	> 4 mM (inactive)
c1ccc(SCc2nc(-c3cccnc3)no2)cc1	> 4 mM (inactive)
Nc1nc(-c2ccc(Cl)cc2)nn1C(=O)c1cccnc1	> 4 mM (inactive)
CC(=O)NC(O)C(=O)c1cccs1 (stereo unspecified)	> 4 mM (inactive)
CNC(=O)C(=O)Nc1ccc(C)c(C)c1	> 4 mM (inactive)
N#CCSc1nnc2ccc3ccccc3n12	> 4 mM (inactive)
NC(=O)c1ccc(N2C(=O)CCC2=O)cc1Cl	> 4 mM (inactive)
OCc1c[nH]c2ccccc12	> 4 mM (inactive)
